Values quoted from earlier work in US5315013A, “Substituted pyrazole angiotensin II antagonists” (E. I. Du Pont de Nemours and Company, priority 1992, dated 1994).

SMILES: CNCC(=O)N[C@@H](CCCN=C(N)N)C(=O)N[C@H](C(=O)N[C@@H](Cc1ccc(O)cc1)C(=O)N[C@H](C(=O)N[C@@H](Cc1cnc[nH]1)C(=O)N1CCC[C@H]1C(=O)N[C@@H](C)C(=O)O)C(C)C)C(C)C [Saralasin]
- lowering of arterial pressure (arterial pressure; mammals and man, elevated pressure dependent on circulating AII): demonstrated to lower arterial pressure in mammals and man
- effect of oral doses (arterial pressure; oral): oral doses being ineffective
- pressor effects (agonistic character) (arterial pressure; pressure not sustained by AII): generally elicits pressor effects when the pressure is not sustained by AII
- effects of AII on the blood pressure blocked (AII; pithed rats): blocks the effects of AII on the blood pressure of pithed rats
- competitive antagonism of the actions of AII (AII; potency in words): one of the most potent competitive antagonists of the actions of AII
